Data as given in paper PMC4147775, “Stimulation of Hepatic Apolipoprotein A-I Production by Novel Thieno-Triazolodiazepines: Roles of the Classical Benzodiazepine Receptor, PAF Receptor, and Bromodomain Binding” (Lipid insights, 2013).
Read-outs that look alike come from different tables or passages of the source.

Tests used:
[1] = target: T1, BRD2(1) (Homo sapiens, UniProt P25440); assay: Protein stability shift assay (thermal shift), BRD2(1); format: binding; conditions: 10 μM ligand
T1 construct: the second as compared with the first bromodomain of these BRDs

[2] = target: T2, BRD2(2) (Homo sapiens, UniProt P25440); assay: Protein stability shift assay (thermal shift), BRD2(2); format: binding; conditions: 10 μM ligand
T2 construct: the second as compared with the first bromodomain of these BRDs

[3] = target: T3, BRD3(1) (Homo sapiens, UniProt Q15059); assay: Protein stability shift assay (thermal shift), BRD3(1); format: binding; conditions: 10 μM ligand
T3 construct: the second as compared with the first bromodomain of these BRDs

[4] = target: T4, BRD4(2) (Homo sapiens, UniProt O60885); assay: Protein stability shift assay (thermal shift), BRD4(2); format: binding; conditions: 10 μM ligand
T4 construct: the second as compared with the first bromodomain of these BRDs

[5] = target: T5, BRDT(1) (Homo sapiens, UniProt Q58F21); assay: Protein stability shift assay (thermal shift), BRDT(1); format: binding; conditions: 10 μM ligand
T5 construct: the second as compared with the first bromodomain of these BRDs

[6] = target: T6, BRDT(2) (Homo sapiens, UniProt Q58F21); assay: Protein stability shift assay (thermal shift), BRDT(2); format: binding; conditions: 10 μM ligand
T6 construct: the second as compared with the first bromodomain of these BRDs

[7] = target: T7, BAZ2B (Homo sapiens, UniProt Q9UIF8); assay: Protein stability shift assay (thermal shift), BAZ2B; format: binding; conditions: 10 μM ligand
T7 construct: Thermal shift (Δtm^obs) of human bromodomains in the presence of 10 μM compound
T7 sequence (Q9UIF8 2060-2164 limits assumed): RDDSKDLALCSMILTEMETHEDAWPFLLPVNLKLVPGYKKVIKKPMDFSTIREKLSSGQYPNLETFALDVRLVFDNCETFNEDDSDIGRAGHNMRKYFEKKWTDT

[8] = target: T8, CREBBP (Homo sapiens, UniProt Q92793); assay: Protein stability shift assay (thermal shift), CREBBP; format: binding; conditions: 10 μM ligand
T8 construct: Thermal shift (Δtm^obs) of human bromodomains in the presence of 10 μM compound

[9] = target: T9, PB1(5) (Homo sapiens, UniProt Q86U86); assay: Protein stability shift assay (thermal shift), PB1(5); format: binding; conditions: 10 μM ligand
T9 construct: Thermal shift (Δtm^obs) of human bromodomains in the presence of 10 μM compound

[10] = target: T10, PCAF (Homo sapiens, UniProt Q92831); assay: Protein stability shift assay (thermal shift), PCAF; format: binding; conditions: 10 μM ligand
T10 construct: Thermal shift (Δtm^obs) of human bromodomains in the presence of 10 μM compound
T10 sequence (Q92831 723-827 limits assumed): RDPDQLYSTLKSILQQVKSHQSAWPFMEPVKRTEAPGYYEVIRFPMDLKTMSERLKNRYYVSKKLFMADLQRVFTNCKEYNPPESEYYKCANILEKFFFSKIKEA

[11] = tested on: apoA-I production by primary human hepatocytes; assay: apoA-I production by primary human hepatocytes (ELISA); format: cell-based; conditions: cultured human hepatocytes
[12] = tested on: apoA-I production by Hep-G2 cells; set-up: method as in PMID 20513599; conditions: HepG2 cells, 40 μM; cited from earlier work
[13] = some of the participants; cited from earlier work
[14] = tested on: fibrosarcoma cells (HT1080); assay: Cytotoxicity: mitochondrial membrane potential (TMRM)
[15] = target: T11, BRD3(2) (Homo sapiens, UniProt Q15059); assay: Protein stability shift assay (thermal shift), BRD3(2); format: binding; set-up: the second as compared with the first bromodomain of these BRDs; conditions: 10 μM ligand
[16] = target: T12, BRD4(1) (Homo sapiens, UniProt O60885); assay: Protein stability shift assay (thermal shift), BRD4(1); format: binding; set-up: the second as compared with the first bromodomain of these BRDs; conditions: 10 μM ligand
[17] = tested on: recombinant BRD3 domains; assay: Bromodomain inhibition assay (Alphascreen), acetylated histone H4 peptide displacement, BRD3; format: biochemical; conditions: domains 1 and 2, result in words (Figure 4)
[18] = tested on: recombinant BRD4 domains; assay: Bromodomain inhibition assay (Alphascreen), acetylated histone H4 peptide displacement, BRD4; format: biochemical; conditions: domains 1 and 2, result in words (Figure 4)
[19] = tested on: central BZD receptor; assay: Binding to central BZD receptor, 3H-flunitrazepam, rat cerebral cortex membranes; conditions: rat brain membranes, result in words (Figure 3A)
[20] = target: T13, human recombinant PAF receptor (Homo sapiens, UniProt P25105); assay: Binding to PAF receptor, 3H-C16-PAF, CHO cells; conditions: cells expressing the human PAF receptor, result in words (Figure 3B)
T13 construct: expressed in transfected cells; host or cells: CHO cells

[21] = Metabolic stability in human hepatocytes; format: in vitro ADME; conditions: cryopreserved human hepatocytes, donor 2, 10 μM, read-out: stability in human hepatocytes (% remaining after 120 min)
[22] = Cytotoxicity: ATP level (Cell Titer Glo); format: cell-based, human; conditions: 100 μM, 72 hours, result in words
[23] = target: T11, BRD3(2); assay: Isothermal titration calorimetry, BRD3(2); format: binding; set-up: 2 μM for the first bromodomain in BRD4 and 0.5 μM for the second bromodomain in BRD3; conditions: ITC
[24] = target: T12, BRD4(1); assay: Isothermal titration calorimetry, BRD4(1); format: binding; set-up: 2 μM for the first bromodomain in BRD4 and 0.5 μM for the second bromodomain in BRD3; conditions: ITC

T11 sequence (Q15059 306-415 limits assumed): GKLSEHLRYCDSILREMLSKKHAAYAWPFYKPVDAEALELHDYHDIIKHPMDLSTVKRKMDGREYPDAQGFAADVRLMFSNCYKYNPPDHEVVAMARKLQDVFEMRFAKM
T9 sequence (Q86U86 653-763 limits assumed): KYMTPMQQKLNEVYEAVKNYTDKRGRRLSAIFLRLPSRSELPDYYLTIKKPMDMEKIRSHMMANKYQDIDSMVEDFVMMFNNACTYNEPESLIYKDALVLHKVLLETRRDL
T3 sequence (Q15059 34-140 limits assumed): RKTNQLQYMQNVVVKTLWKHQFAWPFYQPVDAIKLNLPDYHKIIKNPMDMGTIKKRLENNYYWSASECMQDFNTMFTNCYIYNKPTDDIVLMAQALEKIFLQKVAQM
T8 sequence (Q92793 1085-1192 limits assumed): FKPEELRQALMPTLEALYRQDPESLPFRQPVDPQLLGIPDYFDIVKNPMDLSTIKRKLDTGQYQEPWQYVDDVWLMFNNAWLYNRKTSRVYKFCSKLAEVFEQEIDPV
T1 sequence (P25440 74-180 limits assumed): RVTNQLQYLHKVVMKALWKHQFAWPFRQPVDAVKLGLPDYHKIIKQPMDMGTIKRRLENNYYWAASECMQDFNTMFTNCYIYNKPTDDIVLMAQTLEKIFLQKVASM
T2 sequence (P25440 344-453 limits assumed): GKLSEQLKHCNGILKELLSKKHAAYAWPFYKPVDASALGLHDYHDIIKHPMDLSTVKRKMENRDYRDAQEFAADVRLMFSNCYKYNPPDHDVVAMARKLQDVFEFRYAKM
T13 sequence (P25105 whole entry): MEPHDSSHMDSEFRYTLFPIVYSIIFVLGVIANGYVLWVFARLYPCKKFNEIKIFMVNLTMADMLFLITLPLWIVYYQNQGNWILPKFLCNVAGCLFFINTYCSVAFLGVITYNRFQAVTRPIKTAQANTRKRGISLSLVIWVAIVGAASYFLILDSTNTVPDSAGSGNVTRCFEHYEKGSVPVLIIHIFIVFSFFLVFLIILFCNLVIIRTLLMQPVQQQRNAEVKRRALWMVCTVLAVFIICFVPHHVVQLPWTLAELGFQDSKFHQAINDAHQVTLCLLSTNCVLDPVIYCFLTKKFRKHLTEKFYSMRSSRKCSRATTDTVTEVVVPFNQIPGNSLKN

| Compound | Thermal shift (ΔTm obs) BRD2(1) [1] | Thermal shift (ΔTm obs) BRD2(2) [2] | Thermal shift (ΔTm obs) BRD3(1) [3] | Thermal shift (ΔTm obs) BRD4(2) [4] | Thermal shift (ΔTm obs) BRDT(1) [5] | Thermal shift (ΔTm obs) BRDT(2) [6] | Thermal shift (ΔTm obs) BAZ2B [7] | Thermal shift (ΔTm obs) CREBBP [8] | Thermal shift (ΔTm obs) PB1(5) [9] | Thermal shift (ΔTm obs) PCAF [10] | Thermal shift (ΔTm obs) BRD3(2) [15] | Thermal shift (ΔTm obs) BRD4(1) [16] | further results |
| --- | --- | --- | --- | --- | --- | --- | --- | --- | --- | --- | --- | --- | --- |
| COc1cc(OC)c2c(=O)[nH]c(-c3cc(C)c(OCCO)c(C)c3)nc2c1 [RVX-208, reference compound] | 0.9 | 4.0 | 0.8 | 3.4 | 0.6 | 4.0 | −0.2 | −0.2 | 0.0 | −0.4 | 4.0 | 1.3 | increase of apoA-I production ([11]; highest concentration tested (100 μM)): up to 80%; stimulation of apoA-I protein production [12]: 2 fold; liver safety in human study [13]: signs of liver damage; IC50 ([14]; Homo sapiens, HT-1080, 72 h, read-out: mitochondrial membrane potential in fibrosarcoma cells, IC50, 72 hours): 50000 nM; IC50 ([14]; read-out: mitochondrial membrane potential in fibrosarcoma cells, IC50, 72 hours): 49000 nM |
| Cc1nnc2n1-c1sccc1C(c1ccccc1)=NC2(C)C [MDCO-3770] | −1.1 | 0.0 | −0.2 | 2.5 | −0.9 | 0.3 | −0.4 | −0.6 | −0.5 | 1.5 | 5.3 | 3.3 | inhibition of binding of acetylated histone H4 peptide to BRD3 domains [17]: clearly more potent than the other 2 thieno-TZDs; inhibition of binding of acetylated histone H4 peptide to BRD4 domains [18]: clearly more potent than the other 2 thieno-TZDs; stimulation of apoA-I production ([11]; 72 hours, maximal stimulation): up to 3 fold; competition with labeled flunitrazepam [19]: did not compete; competition with labeled PAF [20]: only weakly displaced; remaining at 2 h, 10 μM [21]: 97%; ATP level in human hepatocytes [22]: no effect at 100 μM (n = 3); mitochondrial membrane potential in fibrosarcoma cells ([14]; 100 μM, 72 hours, result in words): no effect at 100 μM (n = 5); TΔS ([23]; BRD3(2), 15°C): 0.04 kcal/mol; ΔH obs ([23]; BRD3(2), 15°C): -4.62 ± 0.042 kcal/mol; N ([23]; BRD3(2), 15°C, single binding site model): 1.02 ± 0.006; Kd ([23]; KD, BRD3(2), 15°C, reverse titration): 513 ± 40.5 nM; Kd ([23]; binding affinity, second bromodomain in BRD3, rounded in text): 500 nM; TΔS ([24]; BRD4(1), 15°C): 0.01 kcal/mol; ΔG ([24]; BRD4(1), 15°C): -6.71 kcal/mol; ΔH obs ([24]; BRD4(1), 15°C): -6.71 ± 0.103 kcal/mol; N ([24]; BRD4(1), 15°C, single binding site model): 0.99 ± 0.011; Kd ([24]; KD, BRD4(1), 15°C, reverse titration): 2060 ± 141 nM; Kd ([24]; binding affinity, first bromodomain in BRD4, rounded in text): 2000 nM |
